Measured values published in ChEMBL document CHEMBL4834434, “Discovery of Novel and Potent N-Methyl-d-aspartate Receptor Positive Allosteric Modulators with Antidepressant-like Activity in Rodent Models” (J Med Chem, 2021).
Activity calls are given as the source filed them. The calls are words filed in the database; no cut-off is given here.

Legend:
[1] = biological target: Glutamate NMDA receptor (Mus musculus) (UniProt P35436+Q91ZU9+Q03391+P35438+Q01097+Q01098+A2AIR5); assay: Positive allosteric modulation of C57BL/6 mouse NMDA receptor assessed as fold change in compound potentiated NMDA-induced current relative to NMDA current alone at 30 uM measured after 15 to 30 mins by patch-clamp method; assay type: tissue-based; conditions: Brain, filed as positive allosteric modulator, time 15-30 min
[2] = Brain to blood partition coefficient of the compound; assay type: physicochemical, tissue-based; conditions: read-out: logBB (converted)
Mus musculus = assay: Antidepressant activity in ICR mouse aassessed as inhibition of apomorphine-induced climbing behaviour at 10 mg/kg, ip administered prior to APO challenge and measured after 30 mins; assay type: functional, organism-based

| SMILES | fold change (FC) [1] | Kp [2] | Activity (Mus musculus) |
| --- | --- | --- | --- |
| O=C(Nc1ccc(Cl)cc1Cl)c1ccc(Cn2nc(C(F)(F)F)cc2C(F)(F)F)o1 | 0.4 | 3.98 |  |
| Cc1cc(C)n(Cc2ccc(C(=O)Nc3ccc(Cl)cc3C(=O)NCCCCO)o2)n1 | 1.7 | 0.17 |  |
| Cc1cc(C)n(Cc2ccc(C(=O)Nc3ccc(Cl)cc3Cl)o2)n1 | 4.7 | 1 |  |
| Cc1cc(C)n(Cc2ccc(C(=O)Nc3ccc4[nH]c(=O)[nH]c4c3)s2)n1 | 0.3 | 0.0251 |  |
| Cc1cc(C)n(Cc2ccc(C(=O)Nc3ccc(Cl)cc3C(=O)Nc3ccccc3)o2)n1 | 1.2 | 0.195 |  |
| Cc1cc(C)n(Cc2ccc(C(=O)Nc3ccc4ccccc4c3)o2)n1 | 3.2 | 0.398 |  |
| Cc1cc(C)n(Cc2ccc(C(=O)Nc3ccccc3CCO)o2)n1 | 0.4 | 0.126 |  |
| Cc1cc(C)n(Cc2ccc(C(=O)Nc3ccc(F)c(C)c3)s2)n1 | 2.4 | 0.794 |  |
| COc1cc(NC(=O)c2ccc(Cn3nc(C)cc3C)s2)cc(OC)c1 | 0.4 | 0.398 |  |
| Cc1cc(Br)ccc1NC(=O)c1ccc(Cl)o1 | 1.2 | 2.09 |  |
| Cc1cc(C)n(Cc2ccc(C(=O)Nc3ccc(Cl)cc3C)s2)n1 | -0.2 | 1.26 |  |
| COc1cc(NC(=O)c2ccc(Cn3nc(C(F)(F)F)cc3C(F)(F)F)o2)cc(OC)c1 | 2.5 | 1.26 |  |
| Cc1cc(C)n(Cc2ccc(C(=O)Nc3ccc(Cl)cc3C)o2)n1 | 3.2 | 0.724 |  |
| COC(=O)c1cc(Cl)ccc1NC(=O)c1ccc(Cn2nc(C)cc2C)o1 | 0.1 | 0.158 |  |
| CCCCNC(=O)c1cc(Cl)ccc1NC(=O)c1ccc(Cn2nc(C)cc2C)o1 | -0.6 | 0.257 |  |
| Cc1cc(C)n(Cc2ccc(C(=O)Nc3ccccc3-c3ccccc3)o2)n1 | 0.3 | 0.398 |  |
| Cc1nc2n(c(=O)c1CCN1CCC(c3noc4cc(F)ccc34)CC1)CCCC2 |  |  | Active |
| Cc1cc(C)n(Cc2ccc(C(=O)Nc3cc(Cl)cc(Cl)c3)s2)n1 | 1.2 | 1.26 |  |
| O=C(Nc1ccc(Cl)c(Cl)c1)c1ccc(Cn2nc(C(F)(F)F)cc2C(F)(F)F)o1 | 2.9 | 3.98 |  |
| Cc1cc(C)n(Cc2ccc(C(=O)Nc3ccc4ccccc4c3)s2)n1 | 1.8 | 0.631 |  |
| Cc1cc(C)n(Cc2ccc(C(=O)Nc3ccc(Cl)cc3CO)o2)n1 | 1.1 | 0.398 |  |
| Cc1cc(C)n(Cc2ccc(C(=O)Nc3ccc(-c4ccccc4)cc3C)s2)n1 | 2.8 | 0.501 |  |
| Cc1cc(C)n(Cc2ccc(C(=O)Nc3ccc(F)cc3Cl)o2)n1 | 0.9 | 0.794 |  |
| Cc1cc(F)ccc1NC(=O)c1ccc(Cn2nc(C(F)(F)F)cc2C(F)(F)F)o1 | 2.4 | 2.51 |  |
| Cc1cc(C)n(Cc2ccc(C(=O)Nc3ccc(Cl)c(F)c3)s2)n1 | 6 | 1.26 |  |
| Cc1cc(C)n(Cc2ccc(C(=O)Nc3ccc(Cl)cc3C(=O)NCc3ccccc3)o2)n1 | 2.9 | 0.166 |  |
| Cc1cc(C)n(Cc2ccc(C(=O)Nc3ccc(-c4cccnc4)cc3C)s2)n1 | 1.8 | 0.251 |  |
| Cc1cc(NC(=O)c2ccc(Cn3nc(C(F)(F)F)cc3C(F)(F)F)o2)ccc1F | 5.5 | 2.51 |  |

| SMILES | fold change (FC) [1] | Kp [2] | Activity (Mus musculus) |
| --- | --- | --- | --- |
| Cc1cc(C)n(Cc2ccc(C(=O)Nc3ccc(Br)cc3)o2)n1 | 1.2 | 0.646 |  |
| Cc1cc(Br)ccc1NC(=O)c1ccco1 | -0.2 | 1.41 |  |
| Cc1cc(C(F)(F)F)n(Cc2ccc(C(=O)Nc3ccc(Br)cc3C)o2)n1 | 1.2 | 1.58 |  |
| CCOc1ccc(NC(=O)c2ccc(Cn3nc(C)cc3C)s2)cc1OCC | 2.7 | 0.251 |  |
| CCc1cc(Br)ccc1NC(=O)c1ccc(Cn2nc(C)cc2C)o1 | 2.6 | 0.631 |  |
| Cc1ccc(C(=O)Nc2ccc(Br)cc2C)o1 | -0.3 | 1.32 |  |
| Cc1cc(Br)ccc1NC(=O)c1ccc(Cn2nc(C(F)(F)F)cc2C(F)(F)F)o1 | 10.7 | 2.51 |  |
| Cc1cc(Cl)ccc1NC(=O)c1ccc(Cn2nc(C(F)(F)F)cc2C(F)(F)F)o1 | 0.7 | 2.51 |  |
| COC(=O)c1cc(Br)ccc1NC(=O)c1ccc(Cn2nc(C)cc2C)o1 | 2.7 | 0.251 |  |
| Cc1cc(C)n(Cc2ccc(C(=O)Nc3cccnc3)o2)n1 | 2.9 | 0.251 |  |
| Cc1cc(C)n(Cc2ccc(C(=O)Nc3ccc(-c4ccccc4)cc3)s2)n1 | 2.8 | 0.398 |  |
| Cc1cc(C)n(Cc2ccc(C(=O)Nc3ccc(-c4ccccc4)cc3)o2)n1 | 6.7 | 0.398 |  |
| Cc1cc(C)n(Cc2ccc(C(=O)Nc3ccc(F)cc3C)o2)n1 | 1.9 | 0.631 |  |
| Cc1cc(C)n(Cc2ccc(C(=O)Nc3ccc(Br)cc3C)s2)n1 | 1.5 | 1.26 |  |
| Cc1cc(C)n(Cc2ccc(C(=O)Nc3ccc(F)c(Cl)c3)s2)n1 | 3.5 | 1.26 |  |
| Cc1cc(C)n(Cc2ccc(C(=O)Nc3ccc(Br)cc3Cl)o2)n1 | 1.7 | 1 |  |
| Cc1cc(C)n(Cc2ccc(C(=O)Nc3ccc4nc[nH]c4c3)s2)n1 | 0.1 | 0.158 |  |
| Cc1cc(C(F)(F)F)n(Cc2ccc(C(=O)Nc3ccc(Cl)cc3C)o2)n1 | 7.7 | 1.58 |  |
| Cc1cc(C)n(Cc2ccc(C(=O)Nc3ccc(Cl)cc3C(=O)NCCCO)o2)n1 | 2.9 | 0.0331 |  |
| COC(=O)c1cc(F)ccc1NC(=O)c1ccc(Cn2nc(C(F)(F)F)cc2C(F)(F)F)o1 | 1.9 | 0.794 |  |
| Cc1cc(C)n(Cc2ccc(C(=O)Nc3ccc4cnccc4c3)s2)n1 | -0.2 | 0.316 |  |
| Cc1cc(C)n(Cc2ccc(C(=O)Nc3cc(F)cc(F)c3)s2)n1 | 5 | 1 |  |
| CNc1ccccc1NC(=O)c1ccc(Cn2nc(C)cc2C)o1 | 0.8 | 0.316 |  |
| Cc1cc(C)n(Cc2ccc(C(=O)Nc3ccccc3C)o2)n1 | 1.2 | 0.49 |  |
| Cc1cc(C)n(Cc2ccc(C(=O)Nc3ccccc3)o2)n1 | 0.1 | 0.398 |  |
| COC(=O)c1cc(F)ccc1NC(=O)c1ccc(Cn2nc(C)cc2C)o1 | 1.5 | 0.158 |  |
| Cc1cc(C)n(Cc2ccc(C(=O)Nc3ccc4cccnc4c3)s2)n1 | 1.1 | 0.316 |  |
